The experiment addresses T1, YAP-TEAD interaction (Homo sapiens, UniProt P28347).
T1 construct: expressed in transfected cells; host or cells: HEK293 GripTite 293 MSR (Invitrogen R795-07)
Kind of experiment: Cell-based TEAD-GAL4 transactivation assay (luciferase reporter). Particulars: HEK293 cells transfected with TEAD1-Gal4, YAP mutant (S127A, S397A) and luciferase reporter, compounds 0.1 μM to 30 μM; for Emax: HEK293, 24 h, read-out: TEAD-GAL4 Transactivation activity Max Act; for IC50: 24 h. The method, then: To identify inhibitors of YAP-TEAD interaction, a transient transactivation assay was carried out on HEK293 cell line (HEK293 GripTite™ 293 MSR (Invitrogen R795-07)) using plasmids containing the full length TEAD1 sequences, the full length YAP mutant (S127A, S397A) and a luciferase gene reporter. All expression constructs were performed into a pSG5 backbone plasmid in which the SV40 promoter was replaced by the CMV promoter. The TEAD1 construct was prepared by cloning the full-length human TEAD1 cDNA in fusion with the Gal4 DNA Binding Domain (AA 1-148) into pSG5_CMV to create the TEAD1 (FL)_hum_pSG5Gal4_CMV. The full-length YAP mutant (S127A, S397A) was also cloned into pSG5_CMV to create the YAP (FL)_hum_pSG5_mutS127A_S397A_CMV. The reporter plasmid GAL4(5×RE)_TK(−105/+56)_pGL3-Basic contains 5 copies of the GAL4 responsive element (5′-TCGGAGGACAGTACTCC-3′) upstream of the thymidine kinase (TK) promoter (−105/+56) inserted in a pGL3-Basic vector. To evaluate the selectivity of our compounds in blocking the YAP-TEAD interaction, a counter-screening protein-protein interaction transactivation assay was also established. Briefly, two other expression plasmids, the pBD-P53 which expresses the P53 (AA 72-390) in fusion with Gal4 and the pAD-SV40T which expresses the SV40 large T antigen (AA 84-708,AgT), were created. HEK293 cells were seeded at 5×10^4 cells/well in 96 well plates (assay plates) in DMEM medium containing 4.5 g/L D-glucose, 10% high inactivated (HI) fetal bovine serum 1% Glutamax, 1% non-essential amino acid and 1% sodium pyruvate and 0.5% penicillin/streptomycin at 37° C. in a humidified atmosphere of 8% CO2. After 24 h, transfections were performed using Jet-PEI as transfectant (101B-010 Polyplus Transfection), according to the instructions of the manufacturer (N/P=10) and a ratio YAP/TEAD=10 (per well: 50 ng of YAP(FL), 5 ng of TEAD(FL) and 50 ng of reporter plasmid). Six hours after cell transfection, the plates (‘assay plate’) were washed with 100 μl PBS per well and cells were treated with compounds in semi-log from 0.1 μM to 30 μM or DMSO 0.5% as control in DMEM, 4.5 g/L D-Glucose without phenol red, 0.3% BSA, 1% glutamax, 1% NEAA, 1% sodium pyruvate. 24 h later, the luciferase activity was determined after addition of 100 μl of Steady Glo™ luciferase assay system (Promega E2550) according to the manufacturer's directions. Luciferase activity in cell extracts was measured by reading luminescence using the Envision device.
The cellular response was determined by fitting the concentration response curves using a 3-parameter curve fit equation and determining the concentration that inhibited the luciferase activity by 50%.

Molecules are shown by their SMILES.

T1 sequence (P28347 whole entry): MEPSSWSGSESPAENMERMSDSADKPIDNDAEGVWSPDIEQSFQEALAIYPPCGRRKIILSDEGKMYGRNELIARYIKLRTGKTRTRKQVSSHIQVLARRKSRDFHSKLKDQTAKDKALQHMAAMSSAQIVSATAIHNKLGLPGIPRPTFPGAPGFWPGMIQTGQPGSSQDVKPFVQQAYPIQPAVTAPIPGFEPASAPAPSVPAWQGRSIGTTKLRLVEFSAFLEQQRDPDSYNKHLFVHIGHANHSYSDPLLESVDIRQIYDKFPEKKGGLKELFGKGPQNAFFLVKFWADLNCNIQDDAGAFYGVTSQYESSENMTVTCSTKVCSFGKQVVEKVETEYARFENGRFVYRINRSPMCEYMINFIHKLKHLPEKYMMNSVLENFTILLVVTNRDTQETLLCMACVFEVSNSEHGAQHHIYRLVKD

With `COc1cc(/C=N/N(CC(C)C)c2ncnc3cc(C)sc23)ccc1B(O)O` [Ex69, [4-[(E)-[isobutyl-(6-methylthieno[3,2-d]pyrimidin-4-yl)hydrazono]methyl]-2-methoxy-phenyl]boronic acid], the Emax was found to be 92% and the IC50 is 2340 nM.
In the case of `COc1cc(C2=NN(C3=NS(=O)(=O)c4ccccc43)CC(C)(C)C2)ccc1B(O)O` [Ex 57, [4-[2-(1,1-dioxo-1,2-benzothiazol-3-yl)-4,4-dimethyl-3,5-dihydro-pyridazin-6-yl]-2-methoxy-phenyl]boronic acid], the Emax amounted to 84% and the IC50 was 3060 nM.
For `CN(/N=C/c1ccc2c(c1)COB2O)c1ncnc2c1CCC(=O)N2` [Ex100, 4-[[(E)-(1-hydroxy-3H-2,1-benzoxaborol-5-yl)methyleneamino]-methyl-amino]-6,8-dihydro-5H-pyrido[2,3-d]pyrimidin-7-one], the Emax stood at 85% and the IC50 worked out at 1410 nM.
Turning to `COc1cc(/C=N/N(CC(C)C)C2=NS(=O)(=O)c3cc(C#N)ccc32)ccc1B(O)O` [Ex 10, [4-[(E)-[(6-cyano-1,1-dioxo-1,2-benzothiazol-3-yl)-isobutyl-hydrazono]-methyl]-2-methoxy-phenyl]boronic acid], the Emax was 78% and the IC50 was determined as 4360 nM.
As to `COCCOc1cc(/C=N/N(CC(C)C)C2=NS(=O)(=O)c3ccccc32)ccc1B(O)O` [Ex 11, [4-[(E)-[(1,1-dioxo-1,2-benzothiazol-3-yl)-isobutyl-hydrazono]methyl]-2-(2-methoxyethoxy)phenyl]boronic acid], the Emax came to 85%.
For `COc1cc(/C=N/N(CC(C)C)c2nc(C)nc3ccsc23)ccc1B(O)O` [Ex68, [4-[(E)-[isobutyl-(2-methylthieno[3,2-d]pyrimidin-4-yl)hydrazono]methyl]-2-methoxy-phenyl]boronic acid], the Emax was determined as 84% and the IC50 worked out at 2630 nM.
Regarding `CCN(/N=C/c1ccc2c(c1)COB2O)c1ncnc2ccsc12` [Ex 38, N-ethyl-N-[(E)-(1-hydroxy-3H-2,1-benzoxaborol-5-yl)methyleneamino]-thieno[3,2-d]pyrimidin-4-amine], the Emax was found to be 81% and the IC50 came to 510 nM.
Take `COc1cc(OC)c2c(c1)C(N1N=C(c3ccc(B(O)O)c(OC)c3)CCC1C)=NS2(=O)=O` (centres unmarked) [Ex 54, [4-[2-(5,7-dimethoxy-1,1-dioxo-1,2-benzothiazol-3-yl)-3-methyl-4,5-dihydro-3H-pyridazin-6-yl]-2-methoxy-phenyl]boronic acid]: the Emax came out at 76% and it took 2350 nM to reach half-maximal inhibition (IC50).
Turning to `CCCNC(=O)c1csc2c(N(CC)/N=C/c3ccc4c(c3)COB4O)ncnc12` [Ex112, 4-[ethyl-[(E)-(1-hydroxy-3H-2,1-benzoxaborol-5-yl)methyleneamino]-amino]-N-propyl-thieno[3,2-d]pyrimidine-7-carboxamide], the Emax is 79% and the IC50 is 1870 nM.
Turning to `COc1cc(/C=N/N(CC(C)C)C2=NS(=O)(=O)c3ccc(OCCCO)cc32)ccc1B(O)O` [Ex 12, [4-[(E)-[[5-(3-hydroxypropoxy)-1,1-dioxo-1,2-benzothiazol-3-yl]-isobutyl-hydrazono]methyl]-2-methoxy-phenyl]boronic acid], the Emax was 98% and the IC50 came out at 2970 nM.
The like results for `CCCCN(CCCC)C(=O)c1csc2c(N(CC)/N=C/c3ccc4c(c3)COB4O)ncnc12` [Ex114, N,N-dibutyl-4-[ethyl-[(E)-(1-hydroxy-3H-2,1-benzoxaborol-5-yl)methyleneamino]amino]thieno[3,2-d]pyrimidine-7-carboxamide] were, in that order, 83% and 1740 nM.
Regarding `COCCN(/N=C/c1ccc(B(O)O)c(OC)c1)C1=NS(=O)(=O)c2ccccc21` [Ex 5, [4-[(E)-[(1,1-dioxo-1,2-benzothiazol-3-yl)-(2-methoxyethyl)-hydrazono]methyl]-2-methoxy-phenyl]boronic acid], the Emax turned out to be 67% and the IC50 was 7100 nM.
The like results for `CC1CCC(c2ccc3c(c2)COB3O)=NN1C1=NS(=O)(=O)c2ccccc21` (centres unmarked) [Ex 53, 3-[6-(1-hydroxy-3H-2,1-benzoxaborol-5-yl)-3-methyl-4,5-dihydro-3H-pyridazin-2-yl]-1,2-benzothiazole 1,1-dioxide] were, in that order, 87% and 3040 nM.
In the case of `COc1cc(/C=N/N(CC(C)C)C2=NS(=O)(=O)c3ccc(C)cc32)ccc1B(O)O` [Ex 7, [4-[(E)-[isobutyl-(5-methyl-1,1-dioxo-1,2-benzothiazol-3-yl)hydrazono]-methyl]-2-methoxy-phenyl]boronic acid], the Emax came to 95% and the IC50 was determined as 3430 nM.
With `COc1ccc2c(c1)C(N(C)/N=C/c1ccc3c(c1)COB3O)=NS2(=O)=O` [Ex 37, N-[(E)-(1-hydroxy-3H-2,1-benzoxaborol-5-yl)methyleneamino]-5-methoxy-N-methyl-1,1-dioxo-1,2-benzothiazol-3-amine], the Emax worked out at 92% and half-maximal inhibition (IC50) required 4550 nM.
As for `CCN(/N=C/c1ccc(B(O)O)c(OC)c1)c1ncnc2ccsc12` [Ex63, [4-[(E)-[ethyl(thieno[3,2-d]pyrimidin-4-yl)hydrazono]methyl]-2-methoxy-phenyl]boronic acid], the Emax is 63% and the IC50 came out at 690 nM.
Regarding `CC1CCC(c2ccc3c(c2)COB3O)=NN1c1ncnc2c3c(sc12)CCCC3` (centres unmarked) [Ex122, 4-[6-(1-hydroxy-3H-2,1-benzoxaborol-5-yl)-3-methyl-4,5-dihydro-3H-pyridazin-2-yl]-6,7,8,9-tetrahydrobenzothiopheno[3,2-d]pyrimidine], the Emax was 94% and 820 nM corresponded to half-maximal inhibition (IC50).
As to `CN(/N=C/c1ccc2c(c1)COB2O)c1ncnc2c(C3CC3)csc12` [Ex103, 7-cyclopropyl-N-[(E)-(1-hydroxy-3H-2,1-benzoxaborol-5-yl)methyleneamino]-N-methyl-thieno[3,2-d]pyrimidin-4-amine], the Emax stood at 79% and the IC50 was 710 nM.
For the compound `COCCOc1ccc2c(c1)C(N(CC(C)C)/N=C/c1ccc(B(O)O)c(OC)c1)=NS2(=O)=O` [Ex 9, [4-[(E)-[isobutyl-[5-(2-methoxyethoxy)-1,1-dioxo-1,2-benzothiazol-3-yl]hydrazono]methyl]-2-methoxy-phenyl]boronic acid], the Emax stood at 98% and it took 2330 nM to reach half-maximal inhibition (IC50).
Regarding `CN(/N=C/c1ccc2c(c1)COB2O)c1ncnc2c(N3CCOCC3)csc12` [Ex104, N-[(E)-(1-hydroxy-3H-2,1-benzoxaborol-5-yl)methyleneamino]-N-methyl-7-morpholino-thieno[3,2-d]pyrimidin-4-amine], the Emax stood at 79% and half-maximal inhibition (IC50) was put at 1760 nM.
As to `CCN(/N=C/c1ccc2c(c1)COB2O)c1ncnc2c(OC)cccc12` [Ex 34, N-ethyl-N-[(E)-(1-hydroxy-3H-2,1-benzoxaborol-5-yl)methyleneamino]-8-methoxy-quinazolin-4-amine], the Emax came out at 81% and the IC50 was 1120 nM.
With `CN(/N=C/c1ccc2c(c1)COB2O)C1=NS(=O)(=O)c2ccccc21` [Ex 26, N-[(E)-(1-hydroxy-3H-2,1-benzoxaborol-5-yl)methyleneamino]-N-methyl-1,1-dioxo-1,2-benzothiazol-3-amine], the Emax amounted to 78% and 3410 nM corresponded to half-maximal inhibition (IC50).
The like results for `Cc1csc2c(N(CCO)/N=C/c3ccc4c(c3)COB4O)ncnc12` [Ex97, 2-[[(E)-(1-hydroxy-3H-2,1-benzoxaborol-5-yl)methyleneamino]-(7-methylthieno[3,2-d]pyrimidin-4-yl)amino]ethanol] were, in that order, 79% and 660 nM.
As for `CN(/N=C/c1ccc2c(c1)COB2O)c1ncnc2c1[nH]c(=O)n2C1CCC1` [Ex107, 9-cyclobutyl-6-[[(E)-(1-hydroxy-3H-2,1-benzoxaborol-5-yl)methyleneamino]-methyl-amino]-7H-purin-8-one], the Emax amounted to 87% and the IC50 worked out at 1650 nM.

Source of the values: patent publication US11999758B2, “Inhibitors of the YAP/TAZ-TEAD interaction and their use in the treatment of cancer” (INVENTIVA, priority 2018, dated 2024).
